How the values were obtained:
[1] = tested on: Shionogi mouse mammary carcinoma cells; experiment: Antiandrogenic activity: inhibition of DHT-induced proliferation of Shionogi cells; format: cell-based; details: Table 4′, DHT-induced proliferation; for Antiandrogenic Activity Shionogi, DHT E^−6: E^−6 (10^−6 M)
Outline: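 Androgen-sensitive Shionogi mouse mammary carcinoma cells, 20 000/well, were grown 10–12 days in charcoal-stripped serum with increasing agent concentrations in triplicate, with medium changed every 3–4 days. Cell number was counted directly, and ED50 was derived by least-square regression.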

[2] = tested on: Shionogi mouse mammary carcinoma cells; experiment: Androgenic activity: stimulation of proliferation of Shionogi cells; format: cell-based; details: Table 4′
Outline: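 Shionogi mouse mammary carcinoma cells, at 20 000 cells/well in medium with 5% charcoal-stripped FCS, were grown 10–12 days with the inhibitor at 10^−7 M and 10^−6 M in triplicate. Medium was changed every 3–4 days. Proliferation was read by Coulter counting and given as % stimulation.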

COCCOc1cc2c(cc1C(N)=O)C1CC[C@@]3(C)C(CC[C@@]34CCC(C)(C)C(=O)O4)C1CC2 (stereo partly drawn) [EM-1424, 2-Carbamoyl-3-(2″-methoxyethyloxy)-1,3,5(10)-estratrien 17(R)-spiro-2′-(5′,5′-dimethyl-6′-oxo)tetrahydropyran]
Antiandrogenic Activity Shionogi, DHT E^−6 [1]: −58% | Antiandrogenic Activity Shionogi, DHT E^−7 [1]: −22% | Androgenic Activity Shionogi, Basal E^−6 [2]: −17% | Androgenic Activity Shionogi, Basal E^−7 [2]: 0%

COCCOc1cc2c(cc1C(F)(F)F)[C@H]1CC[C@@]3(C)[C@@H](CC[C@@]34CCC(C)(C)C(=O)O4)[C@@H]1CC2 [EM-1438, 3-(2′-Methoxyethoxy)-2-trifluoromethyl-1,3,5(10)-estratrien-17(R)-spiro-2′-(5′,5′-dimethyl-6′-oxo)tetrahydropyran]
Antiandrogenic Activity Shionogi, DHT E^−6 [1]: −53% | Antiandrogenic Activity Shionogi, DHT E^−7 [1]: 0% | Androgenic Activity Shionogi, Basal E^−6 [2]: −14% | Androgenic Activity Shionogi, Basal E^−7 [2]: 10%

CC1(C)CCC2(CCC3C4CCc5cc(O)c(C#N)cc5C4CCC32C)OC1=O (stereo not shown) [EM-01645]
Antiandrogenic Activity Shionogi, DHT E^−6 [1]: −10% | Antiandrogenic Activity Shionogi, DHT E^−7 [1]: −6% | Androgenic Activity Shionogi, Basal E^−6 [2]: 35% | Androgenic Activity Shionogi, Basal E^−7 [2]: −5%

CC1(C)CCC2(CCC3C4CCc5cc(O)c(C(N)=O)cc5C4CCC32C)OC1=O (stereo not shown) [EM-01660]
Antiandrogenic Activity Shionogi, DHT E^−6 [1]: −51% | Antiandrogenic Activity Shionogi, DHT E^−7 [1]: −20% | Androgenic Activity Shionogi, Basal E^−6 [2]: −31% | Androgenic Activity Shionogi, Basal E^−7 [2]: −4%

CN(C)C(=O)c1cc2c(cc1O)CCC1C2CCC2(C)C1CCC21CCC(C)(C)C(=O)O1 (stereo not shown) [EM-01661-B]
Antiandrogenic Activity Shionogi, DHT E^−6 [1]: −15% | Antiandrogenic Activity Shionogi, DHT E^−7 [1]: 3% | Androgenic Activity Shionogi, Basal E^−6 [2]: −13% | Androgenic Activity Shionogi, Basal E^−7 [2]: 0%

COC(=O)c1cc2c(cc1O)CCC1C2CCC2(C)C1CCC21CCC(C)(C)C(=O)O1 (stereo not shown) [EM-01662]
Antiandrogenic Activity Shionogi, DHT E^−6 [1]: −51% | Antiandrogenic Activity Shionogi, DHT E^−7 [1]: −11% | Androgenic Activity Shionogi, Basal E^−6 [2]: −27% | Androgenic Activity Shionogi, Basal E^−7 [2]: 0%

CC12CCC3c4ccc(O)cc4CCC3C1CCC21CC=CC(=O)O1 [PB-132-140, 3-hydroxy-1,3,5(10)-estratrien-17(R)-spiro-2′-(4′,5′-dihydro-6′-oxo)pyran]
Antiandrogenic Activity Shionogi, DHT E^−6 [1]: 0% | Antiandrogenic Activity Shionogi, DHT E^−7 [1]: 16% | Androgenic Activity Shionogi, Basal E^−6 [2]: −18% | Androgenic Activity Shionogi, Basal E^−7 [2]: 30%

CC1CC(=O)OC2(CCC3C4CCc5cc(O)ccc5C4CCC32C)C1 [PB-132-142, 3-Hydroxy-1,3,5(10)-estratrien-17(R)-spiro-2′-(4′-methyl-6′-oxo)tetrahydropyran]
Antiandrogenic Activity Shionogi, DHT E^−6 [1]: −13% | Antiandrogenic Activity Shionogi, DHT E^−7 [1]: 0% | Androgenic Activity Shionogi, Basal E^−6 [2]: −17% | Androgenic Activity Shionogi, Basal E^−7 [2]: 25%

COC(=O)C1CCC2(CCC3C4CCc5cc(O)ccc5C4CCC32C)OC1=O [PB-132-146, 3-Hydroxy-1,3,5(10)-estratrien-17(R)-2′-(5′-methoxycarbonyl-6′-oxo)tetrahydropyran]
Antiandrogenic Activity Shionogi, DHT E^−6 [1]: −40% | Antiandrogenic Activity Shionogi, DHT E^−7 [1]: 14% | Androgenic Activity Shionogi, Basal E^−6 [2]: 0% | Androgenic Activity Shionogi, Basal E^−7 [2]: 29%

C=CCC1CCC2(CCC3C4CCc5cc(O)ccc5C4CCC32C)OC1=O [PB-132-152, 3-Hydroxy-1,3,5(10)-estratrien-17(R)-2′-(5′-allyl-6′-oxo)tetrahydropyran]
Antiandrogenic Activity Shionogi, DHT E^−6 [1]: −19% | Antiandrogenic Activity Shionogi, DHT E^−7 [1]: 14% | Androgenic Activity Shionogi, Basal E^−6 [2]: 0% | Androgenic Activity Shionogi, Basal E^−7 [2]: 39%

— patent US6541463B1, “Inhibitors of type 5 and type 3 17β-hydroxysteroid dehydrogenase and methods for their use” (Endorecherche, Inc., priority 1998, dated 2003)
